This experiment concerns the target T1, β-catenin/Tcf protein-protein interaction (Homo sapiens, UniProt P35222).
T1 construct: Wild-type β-catenin (residues 138-781) were cloned into a pET-28b vector; 6×histidine (C); made in house; host or cells: E. coli BL21 DE3
T1 sequence (P35222 138-781): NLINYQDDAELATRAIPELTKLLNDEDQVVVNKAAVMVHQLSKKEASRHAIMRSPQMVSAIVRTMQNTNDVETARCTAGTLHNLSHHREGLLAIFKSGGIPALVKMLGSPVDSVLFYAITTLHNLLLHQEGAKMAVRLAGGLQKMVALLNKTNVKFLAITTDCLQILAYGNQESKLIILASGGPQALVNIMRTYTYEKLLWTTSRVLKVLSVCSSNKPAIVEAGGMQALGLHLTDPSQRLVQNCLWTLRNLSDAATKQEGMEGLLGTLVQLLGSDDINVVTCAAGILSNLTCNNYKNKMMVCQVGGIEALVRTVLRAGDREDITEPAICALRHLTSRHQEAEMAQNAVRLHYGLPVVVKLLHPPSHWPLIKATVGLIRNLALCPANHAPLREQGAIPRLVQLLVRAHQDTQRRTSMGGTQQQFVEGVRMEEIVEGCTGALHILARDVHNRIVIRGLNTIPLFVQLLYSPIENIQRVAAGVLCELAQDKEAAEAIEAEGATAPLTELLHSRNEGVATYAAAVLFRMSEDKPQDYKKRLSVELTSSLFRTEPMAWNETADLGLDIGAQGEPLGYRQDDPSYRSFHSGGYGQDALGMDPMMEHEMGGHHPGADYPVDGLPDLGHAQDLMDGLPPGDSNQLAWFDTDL
As to the kind of experiment: FP competitive inhibition assay. Format: binding. The essentials:
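His-tagged human β-catenin (residues 138-781, E. coli-expressed) at 10 nM with 2.5 nM fluorescein-labeled Tcf4 (7-51) in PBS-type buffer with bovine γ-globulin and 0.01% Triton X-100. Compounds added, 1.5 h at 4 °C, 1% DMSO, before fluorescence polarization read. IC50 by nonlinear fit; Ki derived from IC50.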

The mark [1] stands for this setting: Assay 1, mean ± SD (n = 3), read-out: Ki ± SD, Assay 1.
Setting [2] is: Assay 2, mean ± SD (n = 3), read-out: Ki ± SD, Assay 2.
Where [3] appears, read: Assay 3, mean ± SD (n = 3), read-out: Ki ± SD, Assay 3.

Read-outs that look alike come from different tables or passages of the source.

As for `COc1ccc2sc(CCc3c(CCc4ccc(Cl)cc4)c4cc(C(=O)NCC(O)CO)ccc4n3CCc3nn[nH]n3)nc2c1` (stereo not shown) [Compound 66, 1-(2-(2H-tetrazol-5-yl)ethyl)-3-(4-chlorophenethyl)-N-(2,3-dihydroxypropyl)-2-(2-(5-methoxybenzo[d]thiazol-2-yl)ethyl)-1H-indole-5-carboxamide], the Ki runs as follows: under setting [1], 3.7 ± 0.19 µM; under setting [2], 32 ± 3.8 µM.

As for `COc1ccc2sc(CCc3c(CCc4ccc(Cl)cc4)c4cc(C(=O)NCC5CCNCC5)ccc4n3CCc3nn[nH]n3)nc2c1` [Compound 67, 4-((1-(2-(2H-tetrazol-5-yl)ethyl)-3-(4-chlorophenethyl)-2-(2-(5-methoxybenzo[d]thiazol-2-yl)ethyl)-1H-indole-5-carboxamido)methyl)piperidin-1-ium], the Ki was 5.9 ± 0.37 µM under setting [1] and more than 22 µM under setting [2].

For `COc1ccc2sc(CCc3c(CCc4ccc(Cl)cc4)c4cc(C(=O)N[C@H]5CC[C@@H](N)CC5)ccc4n3CCc3nn[nH]n3)nc2c1` [Compound 68, (1s,4s)-4-(1-(2-(2H-tetrazol-5-yl)ethyl)-3-(4-chlorophenethyl)-2-(2-(5-methoxybenzo[d]thiazol-2-yl)ethyl)-1H-indole-5-carboxamido)cyclohexan-1-aminium], the Ki reads like this: under setting [1], more than 24 µM; under setting [2], more than 22 µM. Take `COc1ccc2sc(CCc3c(CCc4ccc(Cl)cc4)c4cc(C(=O)N[C@H]5CC[C@H](N)CC5)ccc4n3CCc3nn[nH]n3)nc2c1` [Compound 69, (1r,4r)-4-(1-(2-(2H-tetrazol-5-yl)ethyl)-3-(4-chlorophenethyl)-2-(2-(5-methoxybenzo[d]thiazol-2-yl)ethyl)-1H-indole-5-carboxamido)cyclohexan-1-aminium]: the Ki under setting [1] was more than 24 µM and the Ki under setting [2] is more than 22 µM.

Regarding `COc1ccc2sc(C#Cc3c(CCc4ccc(Cl)cc4)c4cc(C(=O)O)ccc4n3CCc3nn[nH]n3)nc2c1` [Compound 71, 1-(2-(2H-tetrazol-5-yl)ethyl)-3-(4-chlorophenethyl)-2-((5-methoxybenzo[d]thiazol-2-yl)ethynyl)-1H-indole-5-carboxylic acid], the Ki reads like this: under setting [1], 0.18 ± 0.034 µM; under setting [2], 0.29 ± 0.026 µM; under setting [3], 0.34 ± 0.023 µM; (Assay 4, mean ± SD (n = 3), read-out: Ki ± SD, Assay 4) 0.45 ± 0.028 µM. On to `COc1ccc2nc(C#Cc3c(CCc4ccc(Cl)cc4)c4cc(C(=O)O)ccc4n3CCc3nn[nH]n3)sc2c1` [Compound 72, 1-(2-(2H-tetrazol-5-yl)ethyl)-3-(4-chlorophenethyl)-2-((6-methoxybenzo[d]thiazol-2-yl)ethynyl)-1H-indole-5-carboxylic acid], for which, under setting [1], the Ki amounted to 0.6 ± 0.039 µM. `COc1ccc2nc(C#Cc3c(CCc4ccc(C)cc4)c4cc(C(=O)O)ccc4n3CCc3nn[nH]n3)sc2c1` [Compound 73, 1-(2-(2H-tetrazol-5-yl)ethyl)-2-((6-methoxybenzo[d]thiazol-2-yl)ethynyl)-3-(4-methylphenethyl)-1H-indole-5-carboxylic acid]: the Ki under setting [1] amounted to 1 ± 0.076 µM. In the case of `COc1ccc2nc(C#Cc3c(CCC4CCOCC4)c4cc(C(=O)O)ccc4n3CCc3nn[nH]n3)sc2c1` [Compound 74, 1-(2-(2H-tetrazol-5-yl)ethyl)-2-((6-methoxybenzo[d]thiazol-2-yl)ethynyl)-3-(2-(tetrahydro-2H-pyran-4-yl)ethyl)-1H-indole-5-carboxylic acid], the inhibitory constant (Ki) was determined as 4.2 ± 0.29 µM under setting [1] and 6 ± 0.39 µM under setting [2]. The like results for `COc1ccc2nc(C#Cc3c(CCc4ccc5c(c4)OCCO5)c4cc(C(=O)O)ccc4n3CCc3nn[nH]n3)sc2c1` [Compound 75, 1-(2-(2H-tetrazol-5-yl)ethyl)-3-(2-(2,3-dihydrobenzo[b][1,4]dioxin-6-yl)ethyl)-2-((6-methoxybenzo[d]thiazol-2-yl)ethynyl)-1H-indole-5-carboxylic acid] were, in that order, 1.8 ± 0.11 µM and 0.68 ± 0.059 µM. With `Cc1ccc(CCc2c(-c3cccs3)n(CCc3nn[nH]n3)c3ccc(C(=O)O)cc23)cc1` [Compound 77, 1-(2-(2H-tetrazol-5-yl)ethyl)-3-(4-methylphenethyl)-2-(thiophen-2-yl)-1H-indole-5-carboxylic acid], the Ki under setting [1] was determined as 1.6 ± 0.11 µM. Regarding `Cc1ccc(CCc2c(-c3csc4ccccc34)n(CCc3nn[nH]n3)c3ccc(C(=O)O)cc23)cc1` [Compound 79, 1-(2-(2H-tetrazol-5-yl)ethyl)-2-(benzo[b]thiophen-3-yl)-3-(4-methylphenethyl)-1H-indole-5-carboxylic acid], the Ki reads like this: under setting [1], 0.57 ± 0.052 µM; under setting [2], 0.7 ± 0.06 µM. Turning to `Cc1ccc(CCc2c(-c3csc(C(F)F)c3)n(CCc3nn[nH]n3)c3ccc(C(=O)O)cc23)cc1` [Compound 80, 1-(2-(2H-tetrazol-5-yl)ethyl)-2-(5-(difluoromethyl)thiophen-3-yl)-3-(4-methylphenethyl)-1H-indole-5-carboxylic acid], the Ki under setting [1] amounted to 0.92 ± 0.1 µM and the Ki under setting [2] is 1.9 ± 0.13 µM. `Cc1ccc(CCc2c(-c3cc[nH]c3)n(CCc3nn[nH]n3)c3ccc(C(=O)O)cc23)cc1` [Compound 81, 1-(2-(2H-tetrazol-5-yl)ethyl)-3-(4-methylphenethyl)-2-(1H-pyrrol-3-yl)-1H-indole-5-carboxylic acid]: the Ki amounted to 1.2 ± 0.28 µM under setting [1] and 3.2 ± 0.79 µM under setting [2].

`Cc1ccc(CCc2c(-c3cccnc3)n(CCc3nn[nH]n3)c3ccc(C(=O)O)cc23)cc1` [Compound 82, 1-(2-(2H-tetrazol-5-yl)ethyl)-3-(4-methylphenethyl)-2-(pyridin-3-yl)-1H-indole-5-carboxylic acid]: the Ki is 8.4 ± 0.58 µM under setting [1] and 30 ± 1.9 µM under setting [2]. `Cc1ccc(CCc2c(-c3ccncc3)n(CCc3nn[nH]n3)c3ccc(C(=O)O)cc23)cc1` [Compound 83, 1-(2-(2H-tetrazol-5-yl)ethyl)-3-(4-methylphenethyl)-2-(pyridin-4-yl)-1H-indole-5-carboxylic acid]: the Ki under setting [1] was 20 ± 1.1 µM. `O=C(O)c1ccc2c(c1)c(CCC1CCCCC1)c(-c1ccsc1)n2CCc1nn[nH]n1` [Compound 85, 1-(2-(2H-tetrazol-5-yl)ethyl)-3-(2-cyclohexylethyl)-2-(thiophen-3-yl)-1H-indole-5-carboxylic acid]: the Ki came out at 0.81 ± 0.052 µM under setting [1], 8.2 ± 0.19 µM under setting [2] and 0.52 ± 0.048 µM under setting [3]. As to `O=C(O)c1ccc2c(c1)c(CCC1CCOCC1)c(-c1ccsc1)n2CCc1nn[nH]n1` [Compound 86, 1-(2-(2H-tetrazol-5-yl)ethyl)-3-(2-(tetrahydro-2H-pyran-4-yl)ethyl)-2-(thiophen-3-yl)-1H-indole-5-carboxylic acid], the Ki is, setting by setting: under setting [1], 1.3 ± 0.4 µM; under setting [2], 1.2 ± 0.23 µM. The like results for `O=C(O)c1ccc2c(c1)c(CCc1ccc3c(c1)OCCO3)c(-c1ccsc1)n2CCc1nn[nH]n1` [Compound 87, 1-(2-(2H-tetrazol-5-yl)ethyl)-3-(2-(2,3-dihydrobenzo[b][1,4]dioxin-6-yl)ethyl)-2-(thiophen-3-yl)-1H-indole-5-carboxylic acid] were, in that order, 3.4 ± 0.86 µM and 1.3 ± 0.066 µM. The corresponding values for `Cc1ccc(CCc2c(-c3ccsc3)n(CCc3nn[nH]n3)c3ccc(C(N)=O)cc23)cc1` [Compound 88, 1-(2-(2H-tetrazol-5-yl)ethyl)-3-(4-methylphenethyl)-2-(thiophen-3-yl)-1H-indole-5-carboxamide] are 16 ± 0.71 µM and approximately 24 µM. As to `CNC(=O)c1ccc2c(c1)c(CCc1ccc(C)cc1)c(-c1ccsc1)n2CCc1nn[nH]n1` [Compound 89, 1-(2-(2H-tetrazol-5-yl)ethyl)-N-methyl-3-(4-methylphenethyl)-2-(thiophen-3-yl)-1H-indole-5-carboxamide], the Ki under setting [1] is more than 24 µM. The same measure, in the same setting: the result for `CONC(=O)c1ccc2c(c1)c(CCc1ccc(C)cc1)c(-c1ccsc1)n2CCc1nn[nH]n1` [Compound 91, 1-(2-(2H-tetrazol-5-yl)ethyl)-N-methoxy-3-(4-methylphenethyl)-2-(thiophen-3-yl)-1H-indole-5-carboxamide] reads 31 ± 5.8 µM. On to `O=C(NCc1ccon1)c1ccc2c(c1)c(CCC1CCCCC1)c(-c1ccsc1)n2CCc1nn[nH]n1` [Compound 95, 1-(2-(2H-tetrazol-5-yl)ethyl)-3-(2-cyclohexylethyl)-N-(isoxazol-3-ylmethyl)-2-(thiophen-3-yl)-1H-indole-5-carboxamide], for which the Ki under setting [1] was 3.1 ± 0.068 µM and the Ki under setting [2] is 15 ± 2.8 µM.

For the compound `O=C(NCc1ccon1)c1ccc2c(c1)c(CCC1CCOCC1)c(-c1ccsc1)n2CCc1nn[nH]n1` [Compound 96, 1-(2-(2H-tetrazol-5-yl)ethyl)-N-(isoxazol-3-ylmethyl)-3-(2-(tetrahydro-2H-pyran-4-yl)ethyl)-2-(thiophen-3-yl)-1H-indole-5-carboxamide], the Ki is, setting by setting: under setting [1], more than 25 µM; under setting [2], more than 25 µM.

The values above are taken from US11530186B2, “Inhibitors for the β-catenin / T-cell factor protein-protein interaction” (H. LEE MOFFITT CANCER CENTER AND RESEARCH INSTITUTE, INC., priority 2018, dated 2022).
